The record followed here is ChEMBL document CHEMBL4359843, “Linear and Rationally Designed Stapled Peptides Abrogate TLR4 Pathway and Relieve Inflammatory Symptoms in Rheumatoid Arthritis Rat Model” (J Med Chem, 2019).

The target in data set [1] is T1, Toll-like receptor 9 (Homo sapiens) (UniProt Q9NR96).
T1 sequence (whole entry): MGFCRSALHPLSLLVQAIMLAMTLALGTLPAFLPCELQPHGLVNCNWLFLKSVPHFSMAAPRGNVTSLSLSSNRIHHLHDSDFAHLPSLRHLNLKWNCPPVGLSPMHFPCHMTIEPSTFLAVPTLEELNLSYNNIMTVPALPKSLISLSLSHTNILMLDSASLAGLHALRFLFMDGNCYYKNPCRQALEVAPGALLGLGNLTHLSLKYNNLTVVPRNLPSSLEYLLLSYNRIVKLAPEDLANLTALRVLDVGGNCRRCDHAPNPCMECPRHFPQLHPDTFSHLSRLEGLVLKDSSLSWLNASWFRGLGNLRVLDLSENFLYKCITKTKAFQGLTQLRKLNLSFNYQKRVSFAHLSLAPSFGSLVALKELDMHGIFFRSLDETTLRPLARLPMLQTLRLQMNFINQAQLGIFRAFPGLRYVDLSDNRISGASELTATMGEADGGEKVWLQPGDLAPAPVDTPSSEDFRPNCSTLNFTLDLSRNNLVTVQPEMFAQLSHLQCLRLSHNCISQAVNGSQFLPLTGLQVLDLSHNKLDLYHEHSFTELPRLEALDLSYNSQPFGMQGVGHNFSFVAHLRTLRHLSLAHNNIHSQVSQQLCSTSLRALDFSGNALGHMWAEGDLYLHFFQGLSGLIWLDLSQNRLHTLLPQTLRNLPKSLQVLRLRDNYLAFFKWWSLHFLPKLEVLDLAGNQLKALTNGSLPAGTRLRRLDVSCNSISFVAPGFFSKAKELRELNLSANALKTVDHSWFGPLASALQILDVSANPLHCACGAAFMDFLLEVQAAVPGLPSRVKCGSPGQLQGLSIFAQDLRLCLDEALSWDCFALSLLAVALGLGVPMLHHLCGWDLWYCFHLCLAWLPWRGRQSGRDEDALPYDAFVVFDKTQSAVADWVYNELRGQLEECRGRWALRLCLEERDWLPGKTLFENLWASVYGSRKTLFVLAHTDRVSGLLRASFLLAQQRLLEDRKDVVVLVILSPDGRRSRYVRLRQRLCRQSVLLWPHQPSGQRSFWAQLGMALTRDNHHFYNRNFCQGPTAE
The data set is described as follows: Antagonist activity at TLR9 in human THP1 cells assessed as reduction in CpG ODN-induced IL6 secretion at 50 uM after 24 hrs by ELISA. Format: cell-based.

The test system of data set [2] is RAW264.7. Description: Cytotoxicity against mouse RAW264.7 cells assessed as reduction in cell viability at 5 to 50 uM after 24 hrs by MTT assay. The conditions noted are these: raw264.7, 24 h. Format: cell-based.
Data set [3] concerns the target T2, Toll-like receptor 4 (Mus musculus) (UniProt Q9QUK6).
T2 sequence (whole entry): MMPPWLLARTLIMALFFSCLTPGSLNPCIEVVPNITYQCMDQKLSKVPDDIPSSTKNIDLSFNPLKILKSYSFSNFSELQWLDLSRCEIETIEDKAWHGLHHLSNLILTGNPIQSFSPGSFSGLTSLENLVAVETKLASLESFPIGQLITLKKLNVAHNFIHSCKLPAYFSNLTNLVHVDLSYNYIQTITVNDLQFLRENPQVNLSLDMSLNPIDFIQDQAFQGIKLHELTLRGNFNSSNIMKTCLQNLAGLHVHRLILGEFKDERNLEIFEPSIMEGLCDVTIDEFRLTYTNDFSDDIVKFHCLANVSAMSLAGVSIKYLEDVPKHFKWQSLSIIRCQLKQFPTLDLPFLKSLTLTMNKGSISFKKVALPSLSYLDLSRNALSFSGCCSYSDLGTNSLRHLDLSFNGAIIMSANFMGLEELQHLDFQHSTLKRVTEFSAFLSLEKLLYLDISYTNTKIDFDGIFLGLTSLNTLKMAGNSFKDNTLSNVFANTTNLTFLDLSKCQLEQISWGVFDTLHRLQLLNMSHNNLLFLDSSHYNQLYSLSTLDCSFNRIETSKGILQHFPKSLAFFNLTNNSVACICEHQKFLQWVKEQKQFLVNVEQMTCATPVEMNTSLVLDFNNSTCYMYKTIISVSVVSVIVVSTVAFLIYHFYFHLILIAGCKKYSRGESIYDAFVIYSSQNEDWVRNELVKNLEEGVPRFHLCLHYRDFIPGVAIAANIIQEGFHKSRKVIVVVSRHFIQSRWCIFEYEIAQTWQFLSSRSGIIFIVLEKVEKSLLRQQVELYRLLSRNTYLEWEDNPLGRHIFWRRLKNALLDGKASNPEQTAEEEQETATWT
The data set is described as follows: Antagonist activity at TLR4 in mouse RAW264.7 cells assessed as reduction in LPS-induced IFNalpha secretion at 5 to 50 uM after 24 hrs by ELISA. Format: cell-based.

Data set [4] has as its target T3, Toll-like receptor 4 (Homo sapiens, UniProt O00206). The data set is described as follows: Antagonist activity at TLR4 in human THP1 cells assessed as reduction in LPS-induced NFkappaB p65 phosphorylation at 50 uM after 15 to 30 mins by Western blot analysis. Format: cell-based.
Data set [5] has as its target T3, Toll-like receptor 4. Description: Antagonist activity at TLR4 in human THP1 cells assessed as reduction in LPS-induced p38 phosphorylation at 50 uM after 15 to 30 mins by Western blot analysis. Format: cell-based.
For data set [6], the system named is Rattus norvegicus. The data set is described as follows: Antiarthritic activity in Lewis rat model of complete Freund's adjuvant-induced arthritis assessed as regeneration of glycosaminoglycans at the border between bone and cartilage at 1 nmol/g administered intra-articularly into knee joint measured on third week by Safranin-O staining based histopathological analysis. Format: functional, organism-based.

Data set [7] concerns Rattus norvegicus. Description: Antiarthritic activity in Lewis rat model of complete Freund's adjuvant-induced arthritis assessed as reduction in inflammation synovial tissues at 1 nmol/g administered intra-articularly into knee joint after 6 week by Safranin-O staining based histopathological analysis. In kind it is functional, organism-based.
Data set [8] addresses T2, Toll-like receptor 4 (Mus musculus). The data set is described as follows: Antagonist activity at TLR4 in mouse RAW264.7 cells assessed as reduction in LPS-induced ERK phosphorylation at 80 uM after 15 to 30 mins by Western blot analysis. Format: cell-based.
For data set [9] the target is unchanged. Description: Antagonist activity at TLR4 in mouse RAW264.7 cells assessed as reduction in LPS-induced IFNbeta secretion after 24 hrs by ELISA. Format: cell-based.
The target is the same in data set [10]. The data set is described as follows: Antagonist activity at TLR4 in mouse RAW264.7 cells assessed as reduction in LPS-induced cytosolic NO level at 80 uM by DAF-FM staining based FACS analysis. Format: cell-based.
In data set [11] the target is TLR2/TLR6 (Mus musculus) (UniProt Q9QUN7+Q9EPW9). The data set is described as follows: Antagonist activity at TLR2/6 in mouse RAW264.7 cells assessed as reduction in FSL-1-induced TNFalpha secretion at 20 to 80 uM after 24 hrs by ELISA. Format: cell-based.
Data set [12] concerns the target T3, Toll-like receptor 4. The data set is described as follows: Antagonist activity at TLR4 in human PBMC cells assessed as reduction in LPS-induced IL6 secretion at 20 to 80 uM after 24 hrs by ELISA. In kind it is cell-based.
In data set [13] the target is T2, Toll-like receptor 4 (Mus musculus). Description: Antagonist activity at TLR4 in mouse BMDM cells assessed as reduction in LPS-induced extracellular NO secretion by spectrophotometric method. In kind it is cell-based.
For data set [14], the system named is Mus musculus. The data set is described as follows: Antiinflammatory activity in C57BL/6J mouse assessed as reduction in LPS-induced IL-12p40 secretion at 70 nmol/g, ip pretreated for 1 hr followed by LPS challenge and measured after 2 hrs by ELISA. In kind it is functional, organism-based.

Calls of active or inactive are those of the source. The calls are words filed in the database; no cut-off is given here. Where a SMILES comes first, the peptide text is derived from it. Bridges are numbered along the chain shown (N, C = ends).

T3 sequence (O00206 whole entry): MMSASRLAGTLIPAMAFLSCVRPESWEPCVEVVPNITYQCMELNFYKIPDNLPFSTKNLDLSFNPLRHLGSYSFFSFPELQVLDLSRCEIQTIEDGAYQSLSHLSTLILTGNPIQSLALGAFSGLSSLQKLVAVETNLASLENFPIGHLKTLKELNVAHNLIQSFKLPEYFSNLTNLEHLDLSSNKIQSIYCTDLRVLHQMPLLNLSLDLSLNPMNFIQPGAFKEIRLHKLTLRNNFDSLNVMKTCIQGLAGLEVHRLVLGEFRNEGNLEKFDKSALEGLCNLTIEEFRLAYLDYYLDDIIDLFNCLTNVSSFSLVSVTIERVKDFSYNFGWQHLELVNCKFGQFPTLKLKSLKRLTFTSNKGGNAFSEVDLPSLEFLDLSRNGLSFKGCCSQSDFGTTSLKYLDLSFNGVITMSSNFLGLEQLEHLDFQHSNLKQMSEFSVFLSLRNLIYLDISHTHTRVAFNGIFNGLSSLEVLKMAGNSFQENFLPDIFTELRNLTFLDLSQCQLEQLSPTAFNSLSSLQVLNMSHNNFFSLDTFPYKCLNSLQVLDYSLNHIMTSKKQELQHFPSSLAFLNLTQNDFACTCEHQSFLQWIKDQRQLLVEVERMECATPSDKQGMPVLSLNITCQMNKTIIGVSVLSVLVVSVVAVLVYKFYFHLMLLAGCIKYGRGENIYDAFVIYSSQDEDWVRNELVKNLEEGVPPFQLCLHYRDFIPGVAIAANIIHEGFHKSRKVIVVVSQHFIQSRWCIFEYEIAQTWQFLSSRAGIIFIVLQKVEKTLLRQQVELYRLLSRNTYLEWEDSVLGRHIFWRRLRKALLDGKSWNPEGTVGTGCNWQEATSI

Regarding `CC[C@H](C)[C@@H]1NC(=O)[C@H](Cc2c[nH]c3ccccc23)NC(=O)[C@H](Cc2c[nH]c3ccccc23)NC(=O)[C@@H](NC(=O)[C@H](CO)NC(=O)[C@H](Cc2ccccc2)NC(=O)[C@@H](NC(=O)CNC(=O)[C@@H](N)CC(C)C)C(C)C)CC(=O)NCCCC[C@@H](C(=O)N[C@@H](CC(C)C)C(=O)N[C@H](C(=O)O)C(C)C)NC1=O` (H-LGVFSDWWIKLV-OH; lactam 6-10), the result in [1], in [3], in [4], in [5], in data set [6] and in [7] was Active. For the same molecule, the Activity entry in [2] was “Non-Toxic”.
For the molecule H-LGVFSSWWIKLV-OH, the outcome in data set [8], in data set [10], in data set [12] and in [14] was Active. For the same molecule, the Activity result in [9] and in data set [13] was “Dose-dependent effect” in each case. Further, the result in data set [11] was inactive.
